Test results reported in patent US12600701B2, “N-acylhydrazonic compounds, use in the treatment of amyloid and non-amyloid degenerative aggregopathies, and pharmaceutical composition” (FACULDADES CATÓLICAS, priority 2020, dated 2026).

Columns and labels:
[1] = Experimental octanol-water partition coefficient (log P); assay type: physicochemical; settings: octanol / Tris buffer 10^−2 mol L^−1 pH 7.4, 37° C., triplicate
Procedure: Tris buffer 10^−2 mol L^−1 pH 7.4 was used as the aqueous phase. Both phases were prepared separately, and contained the hydrazone of interest at low concentrations (5×10^−5 mol L^−1). An ultraviolet/visible molecular absorption spectrum was acquired for each of the phases before mixing. The mixture was stirred at 37° C., protected from light. At the end of the incubation, the mixture was centrifuged for 10 minutes at 3000 rpm, and the layers were separated using pipettes. The concentrations in each phase were measured at the wavelength of greatest absorption of each hydrazone in the respective solvent, through calibration curves. Each compound was analyzed in triplicate and P was calculated as the average concentration ratio Co/Ca where Co is the concentration in the organic phase and Ca in the aqueous phase.
Experimental results were obtained using buffer with physiological pH, and the mixing and separation steps were performed at average human body temperature. This gives the experiment greater biological relevance compared to computational calculations. Even so, the values determined are in agreement with those calculated.

[2] = Stability in aqueous solution containing 1% DMSO (UV-Vis absorption); assay type: physicochemical; settings: 1% DMSO/water, 5×10^−5 mol L^−1, 17° C., over 4 days
Procedure: Stability in aqueous solution containing 1% DMSO: Compounds were prepared at low concentrations (5×10^−5 mol L^−1) in a solution containing 1% DMSO in ultra-pure water. Absorption spectra were obtained between 200 and 800 nm in a molecular absorption spectrophotometer at regular intervals over 12 hours. A final measurement was performed after four days. The room temperature was maintained at 17° C. throughout the experiment.

[3] = test system: SynT-Sph1 aggregation in H4 cells; experiment: Cellular model of α-synuclein (SynT-Sph1) aggregation in H4 cells; assay type: cell-based, human
Procedure: The isoniazid-derived hydrazone of formula (IV) was evaluated in greater detail in a cellular model of α-synuclein aggregation in H4 cells. This model consists of the co-transfection of an α-synuclein construct containing the first 83 amino acids of the EGFP protein linked to its C-terminal portion (SynT) with the synphilin-1 protein (Sph1), resulting in positive inclusions for α-Syn which can be observed by fluorescence microscopy after immunostaining.

[4] = Affinity constant for copper(II), Method of Continuous Variations (Job plot); assay type: binding
Procedure: Affinity constant for copper(II): The affinity constant of compound (IV) for copper(II) was determined using the Method of Continuous Variations, which consists of preparing mixtures of different molar fractions of ligand and metal, followed by measuring their UV-Vis absorbance.
From this information it is possible to calculate the complex formation constant which, for the compound of formula (IV), has a value of 5.66±0.08 at 25° C.

[5] = test system: mice with intracerebroventricular infusion of Aβ oligomers; settings: earlier work of the group, cited from earlier work
healthy rats = settings: earlier work of the group; cited from earlier work
[6] = rats, intraperitoneal injection, HPLC detection in brain; earlier work of the group; cited from earlier work

SMILES | logP [1] | decrease in the intensity of the hydrazonic band [2] | levels of α-Syn expression [3] | morphology of the aggregates ([3]; after treatment) | complex formation constant with copper(II) ([4]; ML-type complex (1:1), 25° C.) | formation constant compared with clioquinol ([4]; clioquinol under similar conditions) | defensive responses related to fear and anxiety ([5]; healthy mice) | short- and long-term memory damage induced by Aβ oligomers ([5]; mice, intracerebroventricular infusion of Aβ oligomers) | acute toxicity (healthy rats) | crossing of the blood-brain barrier [6]
Cn1ccnc1/C=N/NC(=O)c1ccncc1 [(IV), 1-methyl-1H-imidazole-2-carboxaldehyde isonicotinoyl hydrazone] | 0.67 ± 0.03 | less than 2% | does not change | less compact after treatment | 5.66±0.08 | approximately one thousand times lower | – | – | – | –
Cn1ccnc1/C=N/NC(=O)c1ccccc1 [(V), 1-methyl-1H-imidazole-2-carboxaldehyde benzoyl hydrazone] | 1.49 ± 0.13 | – | – | – | – | – | – | – | – | –
O=C(NN=Cc1ccc2cccc(O)c2n1)c1ccncc1 [INHHQ, 8-hydroxyquinoline-2-carboxaldehyde isonicotinoyl hydrazone] | – | approximately 12% | – | – | – | – | does not alter | capable of preventing | non-toxic | capable of crossing the blood-brain barrier
